Assay results from US20230365563A1, “QUINAZOLINE COMPOUND AND APPLICATION THEREOF” (SHANGHAI PHARMACEUTICALS HOLDING CO., LTD., priority 2020, published 2023).
Structures can show the parent of a compound that is named as a salt.

Experiments:
[1] = molecular target: T1, KRAS-G12D and SOS1 (Homo sapiens, UniProt P01116, G12D); test: Inhibition of KRAS-G12D/SOS1 binding (Cisbio binding kit, 665/615 ratio), Effect Embodiment A; settings: read-out: GTP-KRAS-G12D:SOS1 IC50
T1 construct: purchased
In short: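 Compounds underwent 3-fold dilution from their storage solutions (11 points), were transferred to assay wells in duplicate with DMSO held at 1% final, and were briefly centrifuged.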

[2] = molecular target: T2, KRAS_G12D and cRAF (Homo sapiens, UniProt P01116, G12D); test: Inhibition of KRAS_G12D/cRAF binding (Cisbio binding kit, 665/615 ratio), Effect Embodiment B; settings: read-out: GTP-KRAS-G12D:CRAF IC50
T2 construct: purchased
Experimental: (§1) Similarly, the first dilution point of the compound to be tested was its storage solution, and the solution was 3-fold diluted, with 11+0 points of dilution. Echo was used to transfer 0.2 μL gradient diluted solution of the compounds into a 384-well plate, with 2 duplicated wells for each compound, and the final concentration of DMSO was 1%. The solution was centrifuged for 1 min at 1000 rpm/min.
(§2) IC50 of the compounds was fitted by Graphpad Prism 8 nonlinear regression equation: […]
(§3) The IC50 (half inhibitory concentration) of the compound was obtained by using the following nonlinear fitting formula: […]

[3] = molecular target: T3, KRAS_WT and SOS1 (Homo sapiens, UniProt P01116); test: Inhibition of KRAS_WT/SOS1 binding (Cisbio binding kit, 665/615 ratio), Effect Embodiment C; settings: read-out: GTP-KRAS-WT:SOS1 IC50
T3 construct: purchased
Experimental: The inhibitory ability of small molecule compounds on the binding activity of KRAS_WT and SOS1 was examined by a drug screening system based on the combination of KRAS_WT and SOS1.
as §1, §2, §3

T3 sequence (P01116 1-188 isoform P01116-2): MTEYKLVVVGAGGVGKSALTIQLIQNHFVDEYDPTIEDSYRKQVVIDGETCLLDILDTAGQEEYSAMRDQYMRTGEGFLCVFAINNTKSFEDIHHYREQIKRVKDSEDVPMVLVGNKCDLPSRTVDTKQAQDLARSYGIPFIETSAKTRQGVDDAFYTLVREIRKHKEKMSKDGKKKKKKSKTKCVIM
T1 sequence (P01116 1-188 isoform P01116-2 G12D): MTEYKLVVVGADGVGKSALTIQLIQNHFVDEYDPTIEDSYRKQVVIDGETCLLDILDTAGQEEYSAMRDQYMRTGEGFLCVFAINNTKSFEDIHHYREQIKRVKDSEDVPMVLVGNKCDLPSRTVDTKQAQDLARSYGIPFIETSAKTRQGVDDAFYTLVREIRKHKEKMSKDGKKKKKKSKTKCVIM
T2 sequence (P01116 1-188 isoform P01116-2 G12D): as above

Compound	IC50 [1] [nM]	IC50 [2] [nM]	IC50 [3] [nM]
CN(C)CCCNc1nc(N2C[C@H]3CC[C@@H](C2)N3)c2cc(Cl)c(-c3cc(O)cc4ccccc34)c(F)c2n1 (single isomer, unassigned) [Compound 55a, (S or R) 4-(4-((1R,5S)-3,8-diazabicyclo[3.2.1]octan-3-yl)-6-chloro-2-((3-(dimethylamino)propyl)amino)-8-fluoroquinazolin-7-yl)naphthalen-2-ol]	1120	9950	> 100000
CN1CCCC[C@H]1COc1nc(N2CC3CCC(C2)N3)c2cc(Cl)c(-c3cc(O)cc4ccccc34)c(F)c2n1 (single isomer, unassigned) [Compound 56a, 4-((S or R)-4-((1R,5S)-3,8-diazabicyclo[3.2.1]octan-3-yl)-6-chloro-8-fluoro-2-((S)-1-methylpiperidin-2-yl)methoxy)quinazolin-7-yl)naphthalen-2-ol dihydrochloride]	64.1	461	14000
Oc1cc(-c2c(Cl)cc3c(N4CC5CCC(C4)N5)nc(N4CCNCC4)nc3c2F)c2ccccc2c1 (single isomer, unassigned) [Compound 57b, 4-((R or S)-4-((1R,5S)-3,8-diazabicyclo[3.2.1]octan-3-yl)-6-chloro-8-fluoro-2-(piperazin-1-yl)quinazolin-7-yl)naphthalen-2-ol]	419	7910	44500
Oc1cc(-c2c(Cl)cc3c(N4CC5CCC(C4)N5)nc(OCC45CCCN4CCC5)nc3c2F)c2ccccc2c1 (single isomer, unassigned) [Compound 58a, 4-((S or R)-4-((1R,5S)-3,8-diazabicyclo[3.2.1]octan-3-yl)-6-chloro-8-fluoro-2-((tetrahydro-1H-pyrrolin-7a(5H)-yl)methoxy)quinazolin-7-yl)naphthalen-2-o1]	20.4	12.6	47.2
Oc1cc(-c2c(Cl)cc3c(N4CC5CCC(C4)N5)nc(OCCCN4CCC4)nc3c2F)c2ccccc2c1 (single isomer, unassigned) [Compound 59a, 4-((S or R)-2-(3-(azetidin-1-yl)propoxy)-4-((1R,5S)-3,8-diazabicyclo[3.2.1]octan-3-yl)-6-chloro-8-fluoroquinazolin-7-yl)naphthalen-2-ol]	45.4	182	2080
CN(C)CCCCOc1nc(N2CC3CCC(C2)N3)c2cc(Cl)c(-c3cc(O)cc4ccccc34)c(F)c2n1 (single isomer, unassigned) [Compound 60a, 4-((S or R)-4-((1R,5S)-3,8-diazabicyclo[3.2.1]octan-3-yl)-6-chloro-2-(4-(dimethylamino)butoxy)-8-fluoroquinazolin-7-yl)naphthalen-2-ol]	63	357	5900
CN1CCC2(C1)CN(c1nc(N3CC4CCC(C3)N4)c3cc(Cl)c(-c4cc(O)cc5ccccc45)c(F)c3n1)C2 (single isomer, unassigned) [Compound 61a, 4-((S or R)-4-((1R,5S)-3,8-diazabicyclo[3.2.1]octan-3-yl)-6-chloro-8-fluoro-2-(6-methyl-2,6-diazaspiro[3.4]octan-2-yl)quinazolin-7-yl)naphthalen-2-ol]	230	1600	68300
Oc1cc(-c2c(Cl)cc3c(N4CC5CCC(C4)N5)nc(OCCCN4CCCC4)nc3c2F)c2ccccc2c1 (single isomer, unassigned) [Compound 63a, 4-((S or R)-4-((1R,5S)-3,8-diazabicyclo[3.2.1]octan-3-yl)-6-chloro-8-fluoro-2-(3-(pyrrolidin-1-yl)propoxy)quinazolin-7-yl)naphthalen-2-ol]	17.8	134	1580
CN(C)C1CN(c2nc(N3CC4CCC(C3)N4)c3cc(Cl)c(-c4cc(O)cc5cccc(F)c45)c(F)c3n2)C1 (single isomer, unassigned) [Compound 64b, 4-((R or S)-4-((1R,5S)-3,8-diazabicyclo[3.2.1]octan-3-yl)-6-chloro-2-(3-(dimethylamino)azetidin-1-yl)-8-fluoroquinazolin-7-yl)-5-fluoronaphthalen-2-ol]	44.6	283	1250
CN(C)C1CN(c2nc(N3CC4CCC(C3)N4)c3cc(Cl)c(-c4cc(O)cc5cccc(Cl)c45)c(F)c3n2)C1 (single isomer, unassigned) [Compound 65b, 4-((R or S)-4-((1R,5S)-3,8-diazabicyclo[3.2.1]octan-3-yl)-6-chloro-2-(3-(dimethylamino)azetidin-1-yl)-8-fluoroquinazolin-7-yl)-5-chloronaphthalen-2-ol]	84.3	434	270
Oc1cc(-c2c(Cl)cc3c(N4CC5CCC(C4)N5)nc(OCCCN4CCCCC4)nc3c2F)c2ccccc2c1 (single isomer, unassigned) [Compound 66a, 4-((S or R)-4-((1R,5S)-3,8-diazabicyclo[3.2.1]octan-3-yl)-6-chloro-8-fluoro-2-(3-(piperidin-1-yl)propoxy)quinazolin-7-yl)naphthalen-2-ol]	38.3	139	1020
CN(C)CCCCCCOc1nc(N2C[C@H]3CC[C@@H](C2)N3)c2cc(Cl)c(-c3cc(O)cc4ccccc34)c(F)c2n1 (single isomer, unassigned) [Compound 68, (S or R)-4-(4-((1R,5S)-3,8-diazabicyclo[3.2.1]octan-3-yl)-6-chloro-2-((6-(dimethylamino)hexyl)oxy)-8-fluoroquinazolin-7-yl)naphthalen-2-ol dihydrochloride]	214	646	16700
CN(C)[C@H]1C[C@@H](Oc2nc(N3CC4CCC(C3)N4)c3cc(Cl)c(-c4cc(O)cc5ccccc45)c(F)c3n2)C1 (single isomer, unassigned) [Compound 69a, 4-((S or R)-4-((1R,5S)-3,8-diazabicyclo[3.2.1]octan-3-yl)-6-chloro-2-((1S,3R)-3-(dimethylamino)cyclobutoxy)-8-fluoroquinazolin-7-yl)naphthalen-2-ol dihydrochloride]	225	1850	> 100000
CN(C)[C@H]1C[C@H](Oc2nc(N3CC4CCC(C3)N4)c3cc(Cl)c(-c4cc(O)cc5ccccc45)c(F)c3n2)C1 (single isomer, unassigned) [Compound 69b, 4-((S or R)-4-((1R,5S)-3,8-diazabicyclo[3.2.1]octan-3-yl)-6-chloro-2-((1R,3S)-3-(dimethylamino)cyclobutoxy)-8-fluoroquinazolin-7-yl)naphthalen-2-ol dihydrochloride]	157	1960	> 100000
CN(C)C1CCC(Oc2nc(N3CC4CCC(C3)N4)c3cc(Cl)c(-c4cc(O)cc5ccccc45)c(F)c3n2)C1 (single isomer, unassigned) [Compound 70a, 4-((S or R)-4-((1R,5S)-3,8-diazabicyclo[3.2.1]octan-3-yl)-6-chloro-2-((1S,3R or 1R,3S)-3-(dimethylamino)cyclopentyl)oxy)-8-fluoroquinazolin-7-yl)naphthalen-2-ol dihydrochloride]	93.9	592	> 100000
CN(C)C1CCC(Oc2nc(N3CC4CCC(C3)N4)c3cc(Cl)c(-c4cc(O)cc5ccccc45)c(F)c3n2)C1 (single isomer, unassigned) [Compound 70b, 4-((S or R)-4-((1R,5S)-3,8-diazabicyclo[3.2.1]octan-3-yl)-6-chloro-2-((1R,3S or 1S,3R)-3-(dimethylamino)cyclopentyl)oxy)-8-fluoroquinazolin-7-yl)naphthalen-2-ol dihydrochloride]	66	515	> 100000
CN(C)C1CCC(Oc2nc(N3CC4CCC(C3)N4)c3cc(Cl)c(-c4cc(O)cc5ccccc45)c(F)c3n2)C1 (single isomer, unassigned) [Compound 70c, 4-((S or R)-4-((1R,5S)-3,8-diazabicyclo[3.2.1]octan-3-yl)-6-chloro-2-((1S,3S or 1R,3R)-3-(dimethylamino)cyclopentyl)oxy)-8-fluoroquinazolin-7-yl)naphthalen-2-ol dihydrochloride]	74.1	417	38300
CN(C)C1CCC(Oc2nc(N3CC4CCC(C3)N4)c3cc(Cl)c(-c4cc(O)cc5ccccc45)c(F)c3n2)C1 (single isomer, unassigned) [Compound 70d, 4-((S or R)-4-((1R,5S)-3,8-diazabicyclo[3.2.1]octan-3-yl)-6-chloro-2-((1R,3R or 1S,3S)-3-(dimethylamino)cyclopentyl)oxy)-8-fluoroquinazolin-7-yl)naphthalen-2-ol dihydrochloride]	93.9	356	60500
CN1CCC[C@H]1COc1nc(N2CC3CCC(C2)N3)c2cc(Cl)c(-c3cc(O)c(F)c4ccccc34)c(F)c2n1 (single isomer, unassigned) [Compound 89a, (S or R)-4-(4-((1R,5S)-3,8-diazabicyclo[3.2.1]octan-3-yl)-6-chloro-8-fluoro-2-(S)-1-methylpyrrolidin-2-yl)methoxy)quinazolin-7-yl)-1-fluoronaphthalen-2-ol hydrochloride]	47.7	110	2190
